From patent publication US20130237602A1, “VALPROIC ACID DRUG DELIVERY SYSTEMS AND INTRAOCULAR THERAPEUTIC USES THEREOF” (ALLERGAN, INC., priority 2009, published 2013)

Experiments:
[1] = cited from earlier work
visual system = settings: systemic administration to mammals (Goto et al. 2003, rats); cited from earlier work
[2] = test system: Sod1tm1Leb/J mouse retina; type: in vivo, mice; settings: 250 mg/kg IP once daily from three days before paraquat; 0.75 mM intravitreal paraquat; ERG days 1 and 7; n=4
Source text: In furtherance of the in vitro results of Example 1 we carried out an in vivo experiment examining the ability of valproic acid to protect against oxidative insult (oxidative stress) to mammalian retina. We used a murine model in which oxidative stress is induced by pre-dosing with intravitreal paraquat in Sod1^tm1Leb/J mouse model (as set forth in Dong A., et al., Superoxide Dismutase 1 Protects Retinal Cells From Oxidative Damage, J Cell Physio 208:516-526, 2006).
C57BL6 mice heterozygous from the SOD1 gene were obtained from Jackson labs (strain B6;129S7-Sod1tm1Leb/J). The mice were 3-4 months of age at the time of the experiment. […]
ERG recording were measured on dark adapted animals on days 1 and 7 post paraquat injection using an Espion ERG Diagnosys system and Burian-Allen electrodes, 3.0 mm diameter from LKC Technologies, Inc. For ERG recordings mice were anesthetized with ketamine (100 mg/kg) plus xylazine (50 mg/kg) administered IP and pupils dilated with 1% Akpentolate (cyclopentolate hydrochloride) and 10% AK-Dilate (phenylephrine hydrochloride). […] Scotopic ERGs were recorded using a 0.001, 0.01, and 1 cd·s/m2 flash as well as a 20 Hz flicker with the animal on a heating pad. A-wave, B-wave amplitudes were then calculated and statistically significant changes between valproic treated and non-treated animals determined using T test, n=4.

Structure (SMILES) | water solubility [1] | effect on ERG a- and b-wave amplitudes and VEP (visual system) | effect on paraquat induced decrease in ERG B-wave amplitude [2]
CCCC(CCC)C(=O)[O-].[Na+] [sodium valproate] | highly water soluble |  | 
CCCC(CCC)C(=O)O [valproic acid, 2-propylpentanoic acid] |  | suppress ERG a- and b-wave amplitudes as well as VEP | significantly inhibited paraquat induced decrease in B-wave amplitude
